In patent publication US9040713B2, “Methods of managing blood sugar levels and compositions related thereto” (EMORY UNIVERSITY, priority 2010, dated 2015):

Tests used:
p85α−/− MEF cells = test: [3H] 2-deoxyglucose transport in p85α knockout MEF cells; type: cell-based, mouse; conditions: insulin 100 nM 15 min or compound 5 μM 30 min
Description: (§1) Insulin signaling in the cell lysates were tested by immunoblotting. (B) DDN stimulates glucose uptake. […] [3H]2-deoxyglucose was then added, and the cells were further incubated for 10 min. [3H]2-deoxyglucose uptake by adipocytes was measured by scintillation counting (*: P<0.05 **: P<0.01 vs control, Student's t-test, n=3). (C) DDN synergizes insulin's signaling. […] Cell lysates were then prepared for Western blot using specific antibodies as indicated. […] 3H-2-deoxyglucose was then added, and the cells were further incubated for 10 min. 3H-2-deoxyglucose uptake by adipocytes was measured by scintillation counting (*: P<0.05; **: P<0.01, Student's t-test, n=3). (E) IR is necessary for DDN to induce ERK phosphorylation. […] Cell lysates were analyzed by Western blot. […] The uptake of 3H-2-deoxyglucose was monitored by liquid scintillation counting (*: P<0.05; **: P<0.01 vs control, Student's t-test, n=3).
(A) 4524-E7 activates IR phosphorylation and its downstream signaling in 3T3-L1 adipocytes. […] The amount of [3H]2-deoxyglucose taken by adipocytes was measured. […] Results were normalized to DMSO-treated cells and expressed as mean±S.E.M. (*: P<0.05; **:P<0.01, Student's t-test, n=3). […] Cells lysates were collected and analyzed by Western blot. […] 2-deoxyglucose was monitored by liquid scintillation counter. Results were expressed as mean±S.E.M. (*: P<0.05; **:P<0.01, Student's t-test, n=3). […]

IR [1] = target: IR (Mus musculus, UniProt P15208); test: IR signaling in differentiated 3T3-L1 adipocytes (immunoblotting); type: cell-based; design: endogenous in cells; host or cells: differentiated 3T3-L1 adipocytes; conditions: for Akt and ERK phosphorylation after IR knockdown / ERK phosphorylation after IR knockdown: siRNA against IR; for Akt and ERK phosphorylation after IR knockdown: 5 μM 4524-E7 or insulin 100 nM; for IR phosphorylation: 5 nM; for ERK phosphorylation after IR knockdown: insulin 100 nM 15 min or DDN 5 μM 30 min
Sequence of IR (Mus musculus, UniProt P15208) (P15208 28-1372): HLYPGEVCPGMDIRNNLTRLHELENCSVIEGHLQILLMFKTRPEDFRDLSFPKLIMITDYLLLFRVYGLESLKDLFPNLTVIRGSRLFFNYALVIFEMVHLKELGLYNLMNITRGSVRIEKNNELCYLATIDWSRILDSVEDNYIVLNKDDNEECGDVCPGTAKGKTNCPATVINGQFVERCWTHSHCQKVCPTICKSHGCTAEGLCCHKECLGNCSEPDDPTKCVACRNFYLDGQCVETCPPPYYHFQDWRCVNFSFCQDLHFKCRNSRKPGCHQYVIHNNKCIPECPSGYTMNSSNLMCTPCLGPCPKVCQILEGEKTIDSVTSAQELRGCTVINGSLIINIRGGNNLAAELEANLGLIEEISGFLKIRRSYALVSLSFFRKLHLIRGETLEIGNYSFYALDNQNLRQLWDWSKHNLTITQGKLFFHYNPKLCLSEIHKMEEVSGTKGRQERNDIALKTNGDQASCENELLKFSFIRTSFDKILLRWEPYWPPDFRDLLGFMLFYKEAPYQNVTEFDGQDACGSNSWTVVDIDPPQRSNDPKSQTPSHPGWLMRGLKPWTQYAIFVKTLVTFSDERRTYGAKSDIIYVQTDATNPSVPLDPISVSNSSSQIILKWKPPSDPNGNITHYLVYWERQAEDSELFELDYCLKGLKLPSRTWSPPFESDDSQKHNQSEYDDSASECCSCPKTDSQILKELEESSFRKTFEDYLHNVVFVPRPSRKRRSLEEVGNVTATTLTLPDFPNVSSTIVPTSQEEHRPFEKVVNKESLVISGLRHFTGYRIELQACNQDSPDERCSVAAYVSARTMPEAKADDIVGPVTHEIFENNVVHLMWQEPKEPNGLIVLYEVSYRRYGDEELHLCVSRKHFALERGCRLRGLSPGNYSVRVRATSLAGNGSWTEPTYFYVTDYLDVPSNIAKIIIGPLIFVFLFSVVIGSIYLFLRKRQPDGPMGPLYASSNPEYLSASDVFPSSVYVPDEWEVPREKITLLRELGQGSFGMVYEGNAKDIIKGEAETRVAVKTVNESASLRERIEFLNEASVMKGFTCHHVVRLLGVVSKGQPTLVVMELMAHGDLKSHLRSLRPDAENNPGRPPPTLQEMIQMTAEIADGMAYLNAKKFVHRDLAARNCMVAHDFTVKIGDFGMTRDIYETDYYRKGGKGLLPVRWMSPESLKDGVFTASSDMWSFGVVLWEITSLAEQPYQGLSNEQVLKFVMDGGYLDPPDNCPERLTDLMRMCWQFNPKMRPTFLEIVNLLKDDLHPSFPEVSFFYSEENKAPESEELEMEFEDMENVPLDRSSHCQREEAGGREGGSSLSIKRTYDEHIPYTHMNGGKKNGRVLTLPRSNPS
Description: as §1, with “phosphorylation. Differentiated 3T3-L1 adipocytes were transfected with control siRNA or siRNA against IR.” for “phosphorylation.”, “blot. (F) The glucose uptake induced by DDN in p85α knockout MEF cells.” for “blot.”
(A) 4524-E7 activates IR phosphorylation and its downstream signaling in 3T3-L1 adipocytes. […] The cells were lysed, and immunoprecipitated with PY20, and followed by Western blot using specific antibodies. (B) 4524-E7 stimulates glucose uptake in 3T3-L1 adipocytes. […] [3H]2-deoxyglucose was added, and the cells were further incubated for 10 min. The amount of [3H]2-deoxyglucose taken by adipocytes was measured. (C) 4524-E7 inhibits fatty acid oxidation. […] Results were normalized to DMSO-treated cells and expressed as mean±S.E.M. (*: P<0.05; **:P<0.01, Student's t-test, n=3). (D) IR knockdown in adipocytes decreases IR signaling by 4524-E7. […] Cells lysates were collected and analyzed by Western blot. (E) The glucose uptake induced by 4524-E7 in p85α knockout MEF cells. […] The uptaken [3H] 2-deoxyglucose was monitored by liquid scintillation counter. Results were expressed as mean±S.E.M. (*: P<0.05; **:P<0.01, Student's t-test, n=3). […]

IR [2] = target: IR (Homo sapiens, UniProt P06213); test: Insulin competition assay (FITC-insulin, flow cytometry); type: binding; design: expressed in transfected cells; host or cells: CHO (CHO-IR, gift from Dr. Nicholas Webster, UCSD); conditions: CHO-IR cells
Sequence of IR (Homo sapiens, UniProt P06213) (P06213 763-1382 limits assumed): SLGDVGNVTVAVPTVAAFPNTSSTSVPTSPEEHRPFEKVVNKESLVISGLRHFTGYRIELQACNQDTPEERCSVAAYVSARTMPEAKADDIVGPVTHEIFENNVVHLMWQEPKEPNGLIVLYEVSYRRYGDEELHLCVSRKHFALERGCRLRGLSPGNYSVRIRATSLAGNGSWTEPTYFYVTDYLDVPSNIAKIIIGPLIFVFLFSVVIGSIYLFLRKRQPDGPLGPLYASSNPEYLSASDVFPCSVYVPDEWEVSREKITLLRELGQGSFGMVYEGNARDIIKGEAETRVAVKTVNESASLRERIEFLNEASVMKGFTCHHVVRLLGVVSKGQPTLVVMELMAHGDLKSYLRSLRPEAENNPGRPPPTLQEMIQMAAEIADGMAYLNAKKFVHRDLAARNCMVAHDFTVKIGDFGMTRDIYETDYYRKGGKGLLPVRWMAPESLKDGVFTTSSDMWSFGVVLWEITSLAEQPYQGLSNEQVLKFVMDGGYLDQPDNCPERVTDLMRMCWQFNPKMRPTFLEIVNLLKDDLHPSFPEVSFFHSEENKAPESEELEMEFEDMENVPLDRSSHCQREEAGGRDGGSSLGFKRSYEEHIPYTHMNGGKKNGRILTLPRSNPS
Sequence of IR (Homo sapiens, UniProt P06213) (P06213 28-758 limits assumed): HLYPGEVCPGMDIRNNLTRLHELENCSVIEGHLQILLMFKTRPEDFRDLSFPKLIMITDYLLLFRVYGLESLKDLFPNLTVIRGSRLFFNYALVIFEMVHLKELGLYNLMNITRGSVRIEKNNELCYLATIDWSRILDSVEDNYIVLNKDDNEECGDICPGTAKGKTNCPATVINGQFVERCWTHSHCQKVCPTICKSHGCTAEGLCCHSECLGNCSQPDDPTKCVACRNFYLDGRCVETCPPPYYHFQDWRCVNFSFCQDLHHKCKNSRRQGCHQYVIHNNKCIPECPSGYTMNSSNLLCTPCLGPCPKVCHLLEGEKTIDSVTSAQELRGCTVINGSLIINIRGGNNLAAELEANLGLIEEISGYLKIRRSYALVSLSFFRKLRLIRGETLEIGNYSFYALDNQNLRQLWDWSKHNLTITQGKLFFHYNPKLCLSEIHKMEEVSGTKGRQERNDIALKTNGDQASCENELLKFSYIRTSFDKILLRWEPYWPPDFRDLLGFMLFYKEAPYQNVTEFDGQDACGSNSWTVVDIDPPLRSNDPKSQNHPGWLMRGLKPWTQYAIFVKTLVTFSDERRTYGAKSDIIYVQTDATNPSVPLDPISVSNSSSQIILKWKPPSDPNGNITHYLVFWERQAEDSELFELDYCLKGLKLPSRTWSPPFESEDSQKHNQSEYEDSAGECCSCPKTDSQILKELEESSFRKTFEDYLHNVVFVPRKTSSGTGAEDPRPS
Description: Cells were washed three times, acquired on a FACScan, and the mean channel fluorescence (MCF) of bell-shaped histograms was analyzed using the CellQuest program.
Cells were washed three times, acquired on a FACScan, and the mean channel fluorescence (MCF) of bell-shaped histograms was analyzed using the FlowJ program.

## O=C1c2ccccc2C(=O)C2SC(Nc3ccc(Cl)cc3)=NC12 (centres unmarked) [4524-E7, 2-((4-chlorophenyl)amino)naphtho[2,3-d]thiazole-4,9(3aH,9aH)-dione]
p85α−/− MEF cells
  [3H]-2-deoxyglucose uptake: neither insulin nor 4524-E7 was able to induce glucose uptake
IR [1]; 4524-E7 plus 10 nM insulin
  IR, Akt and Erk1/2 phosphorylation in combination with insulin: much more robust IR, Akt and Erk1/2 phosphorylation than insulin or 4524-E7 alone
IR [1]; different concentrations, 15 min, alone
  activation of endogenous IR: could activate the endogenous IR
IR [1]
  Akt and ERK phosphorylation after IR knockdown: also reduced
IR [2]; 10 nM FITC-insulin, unlabelled insulin 1 μM
  competition with FITC-insulin for IR binding (shift of fluorescent peak): no significant change of the shifted peak position

## CC(=O)Oc1ccc(OC(C)=O)c2c1C(=O)C(Cl)=C(Cl)C2=O [DDN, 5,8-diacetyloxy-2,3-dichloro-1,4-naphthoquinone]
IR [1]; 5 nM DDN plus 5 nM insulin
  IR phosphorylation in combination with insulin: higher than those observed when insulin or DDN was administrated separately
IR [1]; alone
  IR phosphorylation: did not induce any IR activation
IR [1]; DDN 0.1, 0.25, 0.5 μM, 30 min
  IR and Akt activation: elicited a dose-dependent IR and Akt activation
IR [1]
  ERK phosphorylation after IR knockdown: reduced when IR was depleted
IR [2]; 100 nM FITC-insulin, unlabelled insulin 5 μM
  competition with FITC-insulin for IR binding (shift of fluorescent peak): No significant change of the shifted peak position

## insulin: insulin, used as positive control
p85α−/− MEF cells
  [3H]-2-deoxyglucose uptake: neither insulin nor 4524-E7 was able to induce glucose uptake
IR [1]; alone
  IR phosphorylation: able to trigger IR phosphorylation
IR [1]
  Akt and ERK phosphorylation after IR knockdown: also reduced
  ERK phosphorylation after IR knockdown: reduced when IR was depleted
